Data on 11 compounds can be found in paper PMC2442655, “Structure-Activity Relationship and Substrate-Dependent Phenomena in Effects of Ginsenosides on Activities of Drug-Metabolizing P450 Enzymes” (PLoS ONE, 2008).

The target of data set [1] is T1, CYP3A4 (Homo sapiens, UniProt P08684). The experiment in a line: Vivid CYP3A4 red fluorescent assay. The note with it: for inhibition at 30 min, 50 µM: human, recombinant (cDNA-expressed) CYP3A4 BACULOSOMES, probe Vivid red substrate 3 µM. As for the experimental part:
(§1) The inhibition of the catalytic activities of cDNA-expressed human P450 enzymes by ginsenosides was determined using Vivid® P450 screening kits (CYP1A2 blue, CYP2C9 red, CYP2C19 blue, CYP2D6 blue, CYP3A4 green and red) according to the manufacturer's instructions (Invitrogen Corporation; Carlsbad, CA, USA).
(§2) In brief, the assays were carried out in Costar® black-wall 96-well plates with ultra thin clear bottoms (Corning Inc, Corning, NY, USA) in a kinetic assay mode. Stock solutions (10 mM) of ginsenosides in methanol were prepared and diluted to various concentrations (2.5× 100, 50, 10, 5, 1 µM). For each well, 40 µL of solution of test compounds or vehicle was incubated with 50 µL pre-mixture (mixture of BACULOSOMES® reagent, regeneration system and reaction buffer) at 37°C for 20 min. The reaction was initiated by adding 10 µL of a mixture of substrate and NADP^+ per well with a respective concentration of Vivid® substrate (Table 1). The plate was read immediately for fluorescence changes every 0.5 min at 37°C for 30 min using a FlexStation II384 fluorometric plate reader (Molecular Devices, Sunnyvale, CA, USA) with respective excitation and emission wavelengths for each P450 enzyme (Table 1). The final methanol volume in the reaction was less than or equal to 1%.

The target of another data set is CYP2D6 (Homo sapiens, UniProt P10635). The experiment in a line: Vivid CYP2D6 blue fluorescent assay. Particulars: for inhibition at 30 min, 50 µM: human. As for the experimental part:
as §1, §2

The target of the next data set is T2, CYP2C9 (Homo sapiens, UniProt P11712).
T2 construct: purchased Invitrogen Corporation
The experiment in a line: Vivid CYP2C9 red fluorescent assay. Type of data set: in vitro ADME. The note with it: for inhibition at 30 min, 50 µM: human.

Data set [2] deals with T1, CYP3A4. The experiment in a line: Vivid CYP3A4 green fluorescent assay. The note with it: for inhibition at 30 min, 50 µM: human. As for the experimental part: as §1, §2
Another data set addresses CYP2C19 (Homo sapiens, UniProt P33261). The experiment in a line: Vivid CYP2C19 blue fluorescent assay. The note with it: for inhibition at 30 min, 50 µM: human. As for the experimental part: as §1, §2
A further data set has as its target T3, CYP1A2 (Homo sapiens, UniProt P05177).
T3 sequence (P05177 1-516): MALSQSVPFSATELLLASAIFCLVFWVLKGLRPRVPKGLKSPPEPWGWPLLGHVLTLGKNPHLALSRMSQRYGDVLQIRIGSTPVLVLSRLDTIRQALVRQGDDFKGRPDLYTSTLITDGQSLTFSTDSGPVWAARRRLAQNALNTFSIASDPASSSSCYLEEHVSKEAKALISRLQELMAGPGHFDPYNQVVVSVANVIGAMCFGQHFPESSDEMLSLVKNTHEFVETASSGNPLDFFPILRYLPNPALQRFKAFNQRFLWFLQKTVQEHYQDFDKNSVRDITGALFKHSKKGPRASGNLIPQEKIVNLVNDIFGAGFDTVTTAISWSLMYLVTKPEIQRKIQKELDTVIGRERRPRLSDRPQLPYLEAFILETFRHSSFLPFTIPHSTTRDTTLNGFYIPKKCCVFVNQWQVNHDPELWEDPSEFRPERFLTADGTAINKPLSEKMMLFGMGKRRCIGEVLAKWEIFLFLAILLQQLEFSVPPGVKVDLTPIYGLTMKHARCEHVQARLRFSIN
Nature of the data set: Vivid CYP1A2 blue fluorescent assay. Particulars: for IC50: IC50 CYP1A2 blue, cDNA-expressed enzyme, Vivid blue substrate 3 µM; for inhibition at 30 min, 50 µM: human. How it is done:
as §1, §2

The mark [3] stands for this setting: recombinant (cDNA-expressed) CYP2D6 BACULOSOMES, probe Vivid blue substrate 10 µM.
[4] abbreviates: cDNA-expressed enzyme, Vivid red substrate 2 µM, maximum concentration 50 µM, read-out: IC50 CYP2C9 red.
The mark [5] stands for this setting: recombinant (cDNA-expressed) CYP1A2 BACULOSOMES, probe Vivid blue substrate 3 µM.
[6] abbreviates: recombinant (cDNA-expressed) CYP2C9 BACULOSOMES, probe Vivid red substrate 2 µM.
Where [7] appears, read: recombinant (cDNA-expressed) CYP3A4 BACULOSOMES, probe Vivid green substrate 2 µM.
[8] abbreviates: recombinant (cDNA-expressed) CYP2C19 BACULOSOMES, probe Vivid blue substrate 10 µM.

Where a name gives a salt, the structure may show the parent alone. Read-outs that look alike come from different tables or passages of the source. Bounds are passed on as bounds.

T2 sequence (P11712 whole entry): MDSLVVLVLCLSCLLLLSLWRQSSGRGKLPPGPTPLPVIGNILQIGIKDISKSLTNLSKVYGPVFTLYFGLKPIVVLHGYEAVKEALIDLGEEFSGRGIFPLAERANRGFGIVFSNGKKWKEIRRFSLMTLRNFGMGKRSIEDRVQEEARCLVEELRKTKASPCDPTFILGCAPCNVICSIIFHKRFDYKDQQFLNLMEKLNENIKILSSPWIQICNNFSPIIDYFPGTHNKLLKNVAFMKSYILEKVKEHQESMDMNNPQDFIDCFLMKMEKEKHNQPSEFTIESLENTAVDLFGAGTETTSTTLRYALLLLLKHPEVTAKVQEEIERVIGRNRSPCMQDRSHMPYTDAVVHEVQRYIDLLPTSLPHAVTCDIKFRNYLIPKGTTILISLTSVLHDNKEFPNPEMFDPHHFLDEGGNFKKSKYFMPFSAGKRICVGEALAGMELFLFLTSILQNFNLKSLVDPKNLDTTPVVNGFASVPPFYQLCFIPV
T1 sequence (P08684 whole entry): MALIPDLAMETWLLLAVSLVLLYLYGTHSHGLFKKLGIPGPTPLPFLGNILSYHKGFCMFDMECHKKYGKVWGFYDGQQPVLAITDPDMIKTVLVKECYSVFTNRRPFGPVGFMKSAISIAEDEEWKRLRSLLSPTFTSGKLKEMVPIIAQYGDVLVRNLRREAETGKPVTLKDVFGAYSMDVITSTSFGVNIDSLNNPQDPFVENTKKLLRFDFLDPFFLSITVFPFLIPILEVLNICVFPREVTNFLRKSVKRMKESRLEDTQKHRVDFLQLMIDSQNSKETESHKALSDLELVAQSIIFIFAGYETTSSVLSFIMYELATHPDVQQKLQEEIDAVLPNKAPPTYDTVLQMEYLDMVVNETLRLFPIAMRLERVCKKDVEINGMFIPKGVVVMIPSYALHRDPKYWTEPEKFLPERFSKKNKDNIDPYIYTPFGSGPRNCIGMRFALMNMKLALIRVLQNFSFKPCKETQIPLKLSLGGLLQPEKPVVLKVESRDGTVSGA
Chain of CYP2D6 (P10635 whole entry): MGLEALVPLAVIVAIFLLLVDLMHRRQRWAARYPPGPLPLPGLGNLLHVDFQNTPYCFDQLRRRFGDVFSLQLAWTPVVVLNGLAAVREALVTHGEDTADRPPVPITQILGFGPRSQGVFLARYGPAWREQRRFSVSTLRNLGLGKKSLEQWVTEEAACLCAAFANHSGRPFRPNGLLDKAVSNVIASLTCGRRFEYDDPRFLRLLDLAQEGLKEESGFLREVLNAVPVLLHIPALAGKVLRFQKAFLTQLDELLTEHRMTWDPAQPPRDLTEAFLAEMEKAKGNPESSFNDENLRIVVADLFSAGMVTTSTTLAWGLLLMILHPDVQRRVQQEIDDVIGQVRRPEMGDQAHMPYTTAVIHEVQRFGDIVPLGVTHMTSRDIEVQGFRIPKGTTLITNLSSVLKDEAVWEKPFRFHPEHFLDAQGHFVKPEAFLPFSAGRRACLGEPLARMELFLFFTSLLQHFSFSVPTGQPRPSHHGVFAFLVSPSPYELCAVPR
Chain of CYP2C19 (P33261 whole entry): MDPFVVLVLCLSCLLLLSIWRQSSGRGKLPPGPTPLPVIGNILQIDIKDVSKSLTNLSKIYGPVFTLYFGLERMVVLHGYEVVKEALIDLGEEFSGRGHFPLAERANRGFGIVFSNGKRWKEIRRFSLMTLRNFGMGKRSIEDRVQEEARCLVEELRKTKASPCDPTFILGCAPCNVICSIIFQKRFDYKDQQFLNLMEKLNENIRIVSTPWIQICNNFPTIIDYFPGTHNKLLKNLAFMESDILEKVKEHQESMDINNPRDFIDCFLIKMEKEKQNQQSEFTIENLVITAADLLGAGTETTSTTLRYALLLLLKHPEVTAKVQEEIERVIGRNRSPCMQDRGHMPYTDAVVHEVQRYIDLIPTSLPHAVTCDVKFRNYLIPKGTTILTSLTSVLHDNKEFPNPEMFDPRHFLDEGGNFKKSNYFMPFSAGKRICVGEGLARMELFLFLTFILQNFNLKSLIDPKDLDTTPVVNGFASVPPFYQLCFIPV
Protocol for CYP2C9: In brief, the assays were carried out in Costar® black-wall 96-well plates with ultra thin clear bottoms (Corning Inc, Corning, NY, USA) in a kinetic assay mode. […] For each well, 40 µL of solution of test compounds or vehicle was incubated with 50 µL pre-mixture (mixture of BACULOSOMES® reagent, regeneration system and reaction buffer) at 37°C for 20 min. […] The final methanol volume in the reaction was less than or equal to 1%.

The term IC50 denotes the concentration that gives 50% inhibition. What is called inhibition is the relative decrease from the control value, in per cent. Take `CC(C)(O)CCC[C@@](C)(O)[C@H]1CC[C@]2(C)[C@@H]1[C@H](O)C[C@@H]1[C@@]3(C)CC[C@H](O)C(C)(C)[C@@H]3[C@@H](O)C[C@]12C` [20(R)-25-OH-PPT]: at CYP3A4 [1] (red substrate), the “Effect on CYP3A4 catalytic activity, Vivid red assay” value is listed as “activated the catalytic activity of CYP3A4”. In addition, the IC50 against CYP2D6 is more than 50 µM; at CYP2C9 (setting [4]) it was 8.5 µM; on CYP3A4 [2], 27.2 µM; against CYP2C19, 43.9 µM; against CYP1A2, more than 100 µM. The inhibition at 30 min, 50 µM stood at 10% at CYP2D6 (setting [3]) and 16.9% on CYP1A2 (setting [5]).

`CC(C)=CCC[C@@](C)(O)[C@H]1CC[C@]2(C)[C@@H]1[C@H](O)C[C@@H]1[C@@]3(C)CC[C@H](O)C(C)(C)[C@@H]3CC[C@]12C` [20(R)-PPD]: the IC50 is 58.6 µM on CYP3A4 [1]; more than 50 µM against CYP2D6; 6.7 µM at CYP2C9 (setting [4]); 10.3 µM on CYP3A4 [2]; 19.2 µM against CYP2C19; more than 100 µM at CYP1A2. The values for the inhibition at 30 min, 50 µM at CYP2D6 (setting [3]) and at CYP1A2 (setting [5]) were 34.9% and 17.1%, respectively.

Take `CC(C)=CCC[C@](C)(O[C@@H]1O[C@H](CO)[C@@H](O)[C@H](O)[C@H]1O)[C@H]1CC[C@]2(C)[C@@H]1[C@H](O)C[C@@H]1[C@@]3(C)CC[C@H](O)C(C)(C)[C@@H]3CC[C@]12C` [C-K, ginsenoside Compound K]: the IC50 against CYP3A4 [1] was 9.1 µM; at CYP2D6, more than 50 µM; on CYP2C9 (setting [4]) it was 9.1 µM; on CYP3A4 [2], 30.5 µM; against CYP2C19, 45.9 µM; on CYP1A2 it was 23.8 µM. Also, the inhibition at 30 min, 50 µM on CYP2D6 (setting [3]) stood at 49.4%.

`CC(C)=CCC[C@](C)(O)[C@H]1CC[C@]2(C)[C@@H]1[C@H](O)C[C@@H]1[C@@]3(C)CC[C@H](O)C(C)(C)[C@@H]3[C@@H](O)C[C@]12C` [PPT, protopanaxatriol]: the IC50 on CYP3A4 [1] was more than 100 µM; on CYP2D6, more than 50 µM; at CYP2C9 (setting [4]), 31.6 µM; against CYP3A4 [2], 7.4 µM; at CYP2C19, 46.9 µM; against CYP1A2 it was more than 100 µM. For the same compound, the inhibition at 30 min, 50 µM was found to be 39.4% on CYP3A4 [1], 18.9% at CYP2D6 (setting [3]) and 13.1% at CYP1A2 (setting [5]).

For the compound `CC(C)=CCC[C@](C)(O[C@@H]1O[C@H](CO[C@@H]2O[C@H](CO)[C@@H](O)[C@H](O)[C@H]2O)[C@@H](O)[C@H](O)[C@H]1O)[C@H]1CC[C@]2(C)[C@@H]1[C@H](O)C[C@@H]1[C@@]3(C)CC[C@H](O[C@@H]4O[C@H](CO)[C@@H](O)[C@H](O)[C@H]4O[C@@H]4O[C@H](CO)[C@@H](O)[C@H](O)[C@H]4O)C(C)(C)[C@@H]3CC[C@]12C` [Rb1], the IC50 on CYP3A4 [1] was more than 100 µM; at CYP2D6 it was more than 50 µM; on CYP2C9 (setting [4]), more than 50 µM; on CYP3A4 [2] it was more than 100 µM; against CYP2C19, more than 100 µM; on CYP1A2 it was 37.8 µM. The inhibition at 30 min, 50 µM at CYP3A4 [1] is 4.4%; on CYP2D6 (setting [3]) it was 29.1%; on CYP2C9 (setting [6]) it was 25.2%; on CYP3A4 [2] (setting [7]) it was 10.1%; at CYP2C19 (setting [8]), 20.6%.

Regarding `CC(C)=CCC[C@](C)(O[C@@H]1O[C@H](CO[C@@H]2OC[C@@H](O)[C@H](O)[C@H]2O)[C@@H](O)[C@H](O)[C@H]1O)[C@H]1CC[C@]2(C)[C@@H]1[C@H](O)C[C@@H]1[C@@]3(C)CC[C@H](O[C@@H]4O[C@H](CO)[C@@H](O)[C@H](O)[C@H]4O[C@@H]4O[C@H](CO)[C@@H](O)[C@H](O)[C@H]4O)C(C)(C)[C@@H]3CC[C@]12C` [Rb3], the IC50 was 68.8 µM against CYP3A4 [1]; more than 50 µM against CYP2D6; more than 50 µM on CYP2C9 (setting [4]); 99.7 µM against CYP3A4 [2]; more than 100 µM against CYP2C19; more than 100 µM against CYP1A2. Further, the inhibition at 30 min, 50 µM at CYP2D6 (setting [3]) was 49.4%; at CYP2C9 (setting [6]) it was 17.6%; at CYP2C19 (setting [8]) it was 5%; on CYP1A2 (setting [5]), 31.3%.

Regarding `CC(C)=CCC[C@](C)(O[C@@H]1O[C@H](CO)[C@@H](O)[C@H](O)[C@H]1O)[C@H]1CC[C@]2(C)[C@@H]1[C@H](O)C[C@@H]1[C@@]3(C)CC[C@H](O)C(C)(C)[C@@H]3[C@@H](O[C@@H]3O[C@H](CO)[C@@H](O)[C@H](O)[C@H]3O[C@@H]3O[C@@H](C)[C@H](O)[C@@H](O)[C@H]3O)C[C@]12C` [Re], the IC50 was 66.1 µM against CYP3A4 [1]; more than 50 µM on CYP2D6; more than 50 µM at CYP2C9 (setting [4]); more than 100 µM against CYP3A4 [2]; more than 100 µM at CYP2C19; more than 100 µM on CYP1A2. The inhibition at 30 min, 50 µM was found to be 44.2% at CYP2D6 (setting [3]); 38% at CYP2C9 (setting [6]); 4.3% on CYP3A4 [2] (setting [7]); 8.8% at CYP2C19 (setting [8]); 28.1% on CYP1A2 (setting [5]).

Consider `CC(C)=CCC[C@](C)(O[C@@H]1O[C@H](CO)[C@@H](O)[C@H](O)[C@H]1O)[C@H]1CC[C@]2(C)[C@@H]1[C@H](O)C[C@@H]1[C@@]3(C)CC[C@H](O)C(C)(C)[C@@H]3[C@@H](O[C@@H]3O[C@H](CO)[C@@H](O)[C@H](O)[C@H]3O)C[C@]12C` [Rg1], for which the IC50 on CYP3A4 [1] was more than 100 µM; on CYP2D6, more than 50 µM; on CYP2C9 (setting [4]), more than 50 µM; against CYP3A4 [2], more than 100 µM; against CYP2C19, more than 100 µM; on CYP1A2 it was more than 100 µM. In addition, the inhibition at 30 min, 50 µM on CYP3A4 [1] was found to be 16.9%; at CYP2D6 (setting [3]), 17.7%; on CYP2C9 (setting [6]), 21.7%; on CYP3A4 [2] (setting [7]) it was 8.1%; at CYP2C19 (setting [8]), 11.7%; at CYP1A2 (setting [5]), 30.2%.

Consider `CC(C)=CCC[C@](C)(O)[C@H]1CC[C@]2(C)[C@@H]1[C@H](O)C[C@@H]1[C@@]3(C)CC[C@H](O)C(C)(C)[C@@H]3[C@@H](O[C@@H]3O[C@H](CO)[C@@H](O)[C@H](O)[C@H]3O[C@@H]3O[C@@H](C)[C@H](O)[C@@H](O)[C@H]3O)C[C@]12C` [Rg2], for which the IC50 against CYP3A4 [1] is 47 µM; at CYP2D6, more than 50 µM; at CYP2C9 it was more than 50 µM; on CYP3A4 [2] it was more than 100 µM; against CYP2C19, more than 100 µM; against CYP1A2 it was more than 100 µM. Besides, the inhibition at 30 min, 50 µM against CYP2D6 turned out to be 37.2%; on CYP2C9 it was 20.1%; on CYP3A4 [2] it was 19.4%; against CYP2C19, 14.8%; on CYP1A2 it was 29.2%.

With `CC(C)=CCC[C@](C)(O)[C@H]1CC[C@]2(C)[C@@H]1[C@H](O)C[C@@H]1[C@@]3(C)CC[C@H](O[C@@H]4O[C@H](CO)[C@@H](O)[C@H](O)[C@H]4O[C@@H]4O[C@H](CO)[C@@H](O)[C@H](O)[C@H]4O)C(C)(C)[C@@H]3CC[C@]12C` [Rg3], the IC50 worked out at 25.2 µM against CYP3A4 [1]; 9.3 µM on CYP2D6; 18.5 µM at CYP2C9 (setting [4]); 86.4 µM on CYP3A4 [2]; 47 µM on CYP2C19; 32.4 µM against CYP1A2.

As to `Clc1ccc(COC(Cn2ccnc2)c2ccc(Cl)cc2Cl)c(Cl)c1` (stereo not shown) [miconazole nitrate salt, reference compound], the IC50 on CYP2C19 (read-out: IC50 CYP2C19 blue, cDNA-expressed enzyme, Vivid blue substrate 10 µM) is 0.25 µM.
